Experiments:
[1] = tested on: HepG-2; assay: Anti-proliferative activity, SRB colorimetric assay; type: cell-based; details: for IC50: Homo sapiens, HepG2, HepG-2 cancer cell line, SRB assay, read-out: Cell lines (IC50 μM) HepG-2; for anti-proliferative activity against HepG-2, in words: authors' grading of Table 1 values, key not given
[2] = tested on: MCF-7; assay: as above; type: cell-based; details: for IC50: Homo sapiens, MCF7, MCF-7 cancer cell line, SRB assay, read-out: Cell lines (IC50 μM) MCF-7; for anti-proliferative activity against MCF-7, in words: authors' grading of Table 1 values, key not given
[3] = molecular target: EGFR (Homo sapiens, UniProt P00533); assay: EGFR inhibitory activity, homogeneous luminescence release assay; type: biochemical; details: reference erlotinib; read-out: EGFR inhibition IC50
Sequence of EGFR (P00533 25-1210): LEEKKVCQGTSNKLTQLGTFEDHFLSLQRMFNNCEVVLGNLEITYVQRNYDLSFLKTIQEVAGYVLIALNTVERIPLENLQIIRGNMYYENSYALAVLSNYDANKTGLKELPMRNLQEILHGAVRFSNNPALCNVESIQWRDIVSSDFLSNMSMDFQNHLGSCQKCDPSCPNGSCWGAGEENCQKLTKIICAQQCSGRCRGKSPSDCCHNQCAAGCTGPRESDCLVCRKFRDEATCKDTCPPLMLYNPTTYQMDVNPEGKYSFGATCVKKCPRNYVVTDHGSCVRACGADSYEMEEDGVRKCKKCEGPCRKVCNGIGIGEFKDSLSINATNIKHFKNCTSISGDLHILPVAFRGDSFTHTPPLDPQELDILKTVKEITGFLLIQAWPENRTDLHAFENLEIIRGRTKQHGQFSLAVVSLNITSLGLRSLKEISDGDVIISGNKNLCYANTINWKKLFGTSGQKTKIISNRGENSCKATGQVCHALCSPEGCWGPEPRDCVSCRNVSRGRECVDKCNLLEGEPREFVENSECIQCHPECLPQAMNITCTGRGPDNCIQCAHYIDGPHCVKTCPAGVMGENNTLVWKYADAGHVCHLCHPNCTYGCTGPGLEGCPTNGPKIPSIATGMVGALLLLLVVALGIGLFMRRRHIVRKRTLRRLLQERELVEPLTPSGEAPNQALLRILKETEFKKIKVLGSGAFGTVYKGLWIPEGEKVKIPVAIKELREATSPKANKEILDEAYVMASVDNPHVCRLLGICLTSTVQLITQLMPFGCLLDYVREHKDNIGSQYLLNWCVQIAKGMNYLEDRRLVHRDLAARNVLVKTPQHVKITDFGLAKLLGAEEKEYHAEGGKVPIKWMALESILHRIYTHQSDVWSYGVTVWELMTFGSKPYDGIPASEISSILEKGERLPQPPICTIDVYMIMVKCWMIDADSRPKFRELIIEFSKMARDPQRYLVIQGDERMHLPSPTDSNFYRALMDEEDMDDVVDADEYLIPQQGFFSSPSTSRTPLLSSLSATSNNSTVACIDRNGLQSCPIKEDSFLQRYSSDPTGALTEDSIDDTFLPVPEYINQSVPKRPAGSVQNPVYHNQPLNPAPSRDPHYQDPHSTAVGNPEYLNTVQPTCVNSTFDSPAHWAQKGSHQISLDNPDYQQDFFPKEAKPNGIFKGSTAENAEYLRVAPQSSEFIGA

[4] = molecular target: VEGFR-2 (Homo sapiens, UniProt P35968); assay: VEGFR-2 inhibitory activity, homogeneous luminescence release assay; type: biochemical; details: reference sorafenib; read-out: VEGFR-2 inhibition IC50
Sequence of VEGFR-2 (P35968 20-1356): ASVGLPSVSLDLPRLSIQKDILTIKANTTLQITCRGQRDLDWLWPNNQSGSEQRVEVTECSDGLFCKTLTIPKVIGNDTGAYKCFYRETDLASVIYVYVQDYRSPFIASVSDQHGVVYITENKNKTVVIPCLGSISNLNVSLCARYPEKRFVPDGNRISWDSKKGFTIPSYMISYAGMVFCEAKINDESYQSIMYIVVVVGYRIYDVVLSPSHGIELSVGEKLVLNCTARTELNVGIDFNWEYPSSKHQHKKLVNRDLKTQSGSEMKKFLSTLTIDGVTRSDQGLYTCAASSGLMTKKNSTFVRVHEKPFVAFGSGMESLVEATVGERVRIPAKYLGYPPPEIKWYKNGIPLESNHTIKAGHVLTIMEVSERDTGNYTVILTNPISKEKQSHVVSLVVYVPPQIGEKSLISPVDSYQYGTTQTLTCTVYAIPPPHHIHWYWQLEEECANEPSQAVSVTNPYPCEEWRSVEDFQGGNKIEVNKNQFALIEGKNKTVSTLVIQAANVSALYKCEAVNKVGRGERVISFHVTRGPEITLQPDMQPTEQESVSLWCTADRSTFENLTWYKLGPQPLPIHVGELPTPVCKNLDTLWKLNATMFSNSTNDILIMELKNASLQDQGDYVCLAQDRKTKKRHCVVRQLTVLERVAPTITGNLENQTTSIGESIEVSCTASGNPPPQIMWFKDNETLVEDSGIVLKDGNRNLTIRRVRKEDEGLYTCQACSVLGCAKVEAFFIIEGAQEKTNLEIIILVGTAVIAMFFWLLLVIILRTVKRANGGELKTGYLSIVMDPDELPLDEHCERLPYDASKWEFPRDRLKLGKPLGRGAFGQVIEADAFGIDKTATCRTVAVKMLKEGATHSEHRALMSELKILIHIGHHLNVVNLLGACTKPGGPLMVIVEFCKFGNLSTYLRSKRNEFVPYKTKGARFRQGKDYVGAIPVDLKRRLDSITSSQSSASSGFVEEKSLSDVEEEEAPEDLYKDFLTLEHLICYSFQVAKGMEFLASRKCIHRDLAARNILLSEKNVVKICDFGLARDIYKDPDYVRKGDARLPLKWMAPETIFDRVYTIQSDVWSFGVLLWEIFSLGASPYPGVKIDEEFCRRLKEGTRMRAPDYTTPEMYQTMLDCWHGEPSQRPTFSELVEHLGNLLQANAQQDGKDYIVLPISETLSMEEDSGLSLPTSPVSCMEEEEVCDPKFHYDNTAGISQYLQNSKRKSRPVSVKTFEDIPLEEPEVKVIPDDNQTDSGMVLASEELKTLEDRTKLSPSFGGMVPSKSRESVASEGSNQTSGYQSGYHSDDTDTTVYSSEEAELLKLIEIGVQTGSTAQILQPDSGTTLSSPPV
From the text: […]. Briefly, these μM inhibitory concentrations recommend greatly the proposed rationale design for the investigated compounds to act as promising dual EGFR/VEGFR-2 inhibitors.

[5] = tested on: HepG2; assay: Cell cycle analysis by flow cytometry; type: cell-based; details: HepG2 treated with 10b at 13.81 μM; control 36.19%
[6] = tested on: HepG-2; assay: Apoptosis analysis, FITC Annexin-V/PI kit; type: cell-based; details: HepG-2 treated with 10b at 13.81 μM
From the text: This was accompanied by significant elevations in the percentage of the AnxV-FITC apoptotic cells in both the early (from 0.36 to 14.52%) and late (from 0.21 to 24.45%) apoptotic phases, compared to the control (Fig. 5 and 6). Accordingly, we can confirm the exact mechanism of the anticancer activity of 10b to be due to the programmed apoptosis pathway.
This was done using the FITC Annexin-V/PI kit.[49]

[7] = tested on: S. aureus; assay: Antibacterial activity, inhibition zone approach; type: cell-based, Staphylococcus aureus; details: for S. aureus Diameter of inhibition zone (mm): Gram-positive bacteria; for antimicrobial activity with S. aureus, in words: authors' grading of Table 2 values, key not given; for S. aureus % Activity index: gentamicin = 100
[8] = tested on: B. subtilis; assay: Antibacterial activity, inhibition zone approach; type: cell-based, Bacillus subtilis; details: for B. subtilis Diameter of inhibition zone (mm): Gram-positive bacteria; for antimicrobial activity with B. subtilis, in words: authors' grading of Table 2 values, key not given; for B. subtilis % Activity index: gentamicin = 100
[9] = tested on: E. coli; assay: Antibacterial activity, inhibition zone approach; type: cell-based, Escherichia coli; details: for E. coli Diameter of inhibition zone (mm): Gram-negative bacteria; for antimicrobial activity with E. coli, in words: authors' grading of Table 2 values, key not given; for E. coli % Activity index: gentamicin = 100
[10] = tested on: P. aeuroginosa; assay: Antibacterial activity, inhibition zone approach; type: cell-based, Pseudomonas aeuroginosa; details: for P. aeuroginosa Diameter of inhibition zone (mm): Gram-negative bacteria; for antimicrobial activity with P. aeuroginosa, in words: authors' grading of Table 2 values, key not given; for P. aeuroginosa % Activity index: gentamicin = 100
[11] = tested on: C. albicans; assay: Antifungal activity, inhibition zone approach; type: cell-based, Candida albicans; details: for C. albicans Diameter of inhibition zone (mm): Fungi; for antimicrobial activity with C. albicans, in words: authors' grading of Table 2 values, key not given; for C. albicans % Activity index: ketoconazole = 100
[12] = tested on: A. flavus; assay: Antifungal activity, inhibition zone approach; type: cell-based, Aspergillus flavus; details: for A. flavus Diameter of inhibition zone (mm): Fungi; for antimicrobial activity with A. flavus, in words: authors' grading of Table 2 values, key not given; for A. flavus % Activity index: ketoconazole = 100

For `NC(=S)n1nc(-c2ccc(Cl)c(Cl)c2)cc1-c1cccs1` [10b, 3-(3,4-dichlorophenyl)-5-(thiophen-2-yl)-1H-pyrazole-1-carbothioamide], the IC50 [1] was 13.8 ± 1.1 µM, the “anti-proliferative activity against HepG-2, in words” value [1] was “strong” and the IC50 [2] was 23.2 ± 1.8 µM. For the same compound, the “anti-proliferative activity against MCF-7, in words” value [2] was “moderate”, the IC50 [3] was 161 nM and the IC50 [4] was 141 nM. For the same compound, the “fold change of S phase population compared to control” value [5] was 1.37 fold, the “AnxV-FITC apoptotic cells, late apoptotic phase” value ([6]; control 0.21%) was 24.45% and the total apoptosis percentage ([6]; control 1.75) was 44.26%. For the same compound, the “AnxV-FITC apoptotic cells, early apoptotic phase” value ([6]; control […]) was 14.52%, the “S. aureus Diameter of inhibition zone (mm)” value [7] was 12 mm and the “antimicrobial activity with S. aureus, in words” value [7] was “very strong”. The “S. aureus % Activity index” value [7] was 66.7%, the “B. subtilis Diameter of inhibition zone (mm)” value [8] was 17 mm and the “antimicrobial activity with B. subtilis, in words” value [8] was “very strong”. For the same compound, the “B. subtilis % Activity index” value [8] was 77.3%, the “E. coli Diameter of inhibition zone (mm)” value [9] was 9 mm and the “antimicrobial activity with E. coli, in words” value [9] was “moderate”. The “E. coli % Activity index” value [9] was 42.8%, the “P. aeuroginosa Diameter of inhibition zone (mm)” value [10] was 13 mm and the “antimicrobial activity with P. aeuroginosa, in words” value [10] was “very strong”. For the same compound, the “P. aeuroginosa % Activity index” value [10] was 68.4%, the “C. albicans Diameter of inhibition zone (mm)” value [11] was 20 mm and the “antimicrobial activity with C. albicans, in words” value [11] was “very strong”. The “C. albicans % Activity index” value [11] was 71.4%, the “A. flavus Diameter of inhibition zone (mm)” value [12] was 14 mm and the “antimicrobial activity with A. flavus, in words” value [12] was “moderate”. For the same compound, the “A. flavus % Activity index” value [12] was 53.8%.

With `CCOC(=O)CN1N=C(c2ccc(O)cc2)CC1c1cccs1` (centres unmarked) [15a, ethyl 2-(3-(4-hydroxyphenyl)-5-(thiophen-2-yl)-4,5-dihydro-1H-pyrazol-1-yl)acetate] the IC50 [1] was 21.4 ± 1.5 µM, the “anti-proliferative activity against HepG-2, in words” value [1] was “moderate” and the IC50 [2] was 9.48 ± 0.7 µM. For the same compound, the “anti-proliferative activity against MCF-7, in words” value [2] was “very strong”, the IC50 [3] was 894 nM and the IC50 [4] was 1140 nM. The “S. aureus Diameter of inhibition zone (mm)” value [7] was 10 mm, the “antimicrobial activity with S. aureus, in words” value [7] was “moderate” and the “S. aureus % Activity index” value [7] was 55.5%. For the same compound, the “B. subtilis Diameter of inhibition zone (mm)” value [8] was 15 mm, the “antimicrobial activity with B. subtilis, in words” value [8] was “strong” and the “B. subtilis % Activity index” value [8] was 68.2%. The “E. coli Diameter of inhibition zone (mm)” value [9] was 9 mm, the “antimicrobial activity with E. coli, in words” value [9] was “moderate” and the “E. coli % Activity index” value [9] was 42.8%. The “P. aeuroginosa Diameter of inhibition zone (mm)” value [10] was 14 mm, the “antimicrobial activity with P. aeuroginosa, in words” value [10] was “strong” and the “P. aeuroginosa % Activity index” value [10] was 73.7%. For the same compound, the “C. albicans Diameter of inhibition zone (mm)” value [11] was 18 mm, the “antimicrobial activity with C. albicans, in words” value [11] was “strong” and the “C. albicans % Activity index” value [11] was 64.3%. The “A. flavus Diameter of inhibition zone (mm)” value [12] was 15 mm, the “antimicrobial activity with A. flavus, in words” value [12] was “moderate” and the “A. flavus % Activity index” value [12] was 57.7%. It also gave a melting point of 65 °C.

In the case of `N#Cc1c(-c2cccs2)cc(-c2ccc(O)cc2)nc1N` [2a, 2-Amino-6-(4-hydroxyphenyl)-4-(thiophen-2-yl)nicotinonitrile], the IC50 [1] is reported as 8.42 ± 0.6 µM, the “anti-proliferative activity against HepG-2, in words” value [1] is reported as “very strong” and the IC50 [2] is reported as 9.59 ± 0.8 µM. The “anti-proliferative activity against MCF-7, in words” value [2] was “very strong”, the IC50 [3] was 209 nM and the IC50 [4] was 195 nM. The “S. aureus Diameter of inhibition zone (mm)” value [7] was 10 mm, the “antimicrobial activity with S. aureus, in words” value [7] was “moderate” and the “S. aureus % Activity index” value [7] was 55.5%. The “B. subtilis Diameter of inhibition zone (mm)” value [8] was 15 mm, the “antimicrobial activity with B. subtilis, in words” value [8] was “strong” and the “B. subtilis % Activity index” value [8] was 68.2%. The “E. coli Diameter of inhibition zone (mm)” value [9] was 9 mm, the “antimicrobial activity with E. coli, in words” value [9] was “moderate” and the “E. coli % Activity index” value [9] was 42.8%. The “P. aeuroginosa Diameter of inhibition zone (mm)” value [10] was 12 mm, the “antimicrobial activity with P. aeuroginosa, in words” value [10] was “strong” and the “P. aeuroginosa % Activity index” value [10] was 63.1%. The “C. albicans Diameter of inhibition zone (mm)” value [11] was 18 mm, the “antimicrobial activity with C. albicans, in words” value [11] was “strong” and the “C. albicans % Activity index” value [11] was 64.3%. The “A. flavus Diameter of inhibition zone (mm)” value [12] was 12 mm, the “antimicrobial activity with A. flavus, in words” value [12] was “moderate” and the “A. flavus % Activity index” value [12] was 46.1%. For the same compound, the melting point was 260 °C.

With `O=C(SC(=S)N1N=C(c2ccc(O)cc2)CC1c1cccs1)c1ccccc1` (centres unmarked) [18a, Benzoic 3-(4-hydroxyphenyl)-5-(thiophen-2-yl)-4,5-dihydro-1H-pyrazole-1-carbothioic thioanhydride] the IC50 [1] was 12.9 ± 1 µM, the “anti-proliferative activity against HepG-2, in words” value [1] was “strong” and the IC50 [2] was 6.92 ± 0.5 µM. The “anti-proliferative activity against MCF-7, in words” value [2] was “very strong”, the IC50 [3] was 436 nM and the IC50 [4] was 344 nM. For the same compound, the “S. aureus Diameter of inhibition zone (mm)” value [7] was 13 mm, the “antimicrobial activity with S. aureus, in words” value [7] was “very strong” and the “S. aureus % Activity index” value [7] was 72.2%. The “B. subtilis Diameter of inhibition zone (mm)” value [8] was 17 mm, the “antimicrobial activity with B. subtilis, in words” value [8] was “very strong” and the “B. subtilis % Activity index” value [8] was 77.3%. For the same compound, the “E. coli Diameter of inhibition zone (mm)” value [9] was 10 mm, the “antimicrobial activity with E. coli, in words” value [9] was “moderate” and the “E. coli % Activity index” value [9] was 47.6%. The “P. aeuroginosa Diameter of inhibition zone (mm)” value [10] was 15 mm, the “antimicrobial activity with P. aeuroginosa, in words” value [10] was “very strong” and the “P. aeuroginosa % Activity index” value [10] was 78.9%. For the same compound, the “C. albicans Diameter of inhibition zone (mm)” value [11] was 20 mm, the “antimicrobial activity with C. albicans, in words” value [11] was “very strong” and the “C. albicans % Activity index” value [11] was 71.4%. The “A. flavus Diameter of inhibition zone (mm)” value [12] was 16 mm, the “antimicrobial activity with A. flavus, in words” value [12] was “very strong” and the “A. flavus % Activity index” value [12] was 61.5%. The melting point was 240 °C.

In the case of `Oc1ccc(C2=NNC(c3cccs3)C2)cc1` (centres unmarked) [7a, 4-(5-(thiophen-2-yl)-4,5-dihydro-1H-pyrazol-3-yl)phenol], the IC50 [1] is reported as 8.13 ± 0.6 µM, the “anti-proliferative activity against HepG-2, in words” value [1] is reported as “very strong” and the IC50 [2] is reported as 3.54 ± 0.2 µM. The “anti-proliferative activity against MCF-7, in words” value [2] was “very strong”, the IC50 [3] was 266 nM and the IC50 [4] was 509 nM. The “S. aureus Diameter of inhibition zone (mm)” value [7] was 15 mm, the “antimicrobial activity with S. aureus, in words” value [7] was “very strong” and the “S. aureus % Activity index” value [7] was 83.3%. For the same compound, the “B. subtilis Diameter of inhibition zone (mm)” value [8] was 19 mm, the “antimicrobial activity with B. subtilis, in words” value [8] was “very strong” and the “B. subtilis % Activity index” value [8] was 86.4%. For the same compound, the “E. coli Diameter of inhibition zone (mm)” value [9] was 12 mm, the “antimicrobial activity with E. coli, in words” value [9] was “very strong” and the “E. coli % Activity index” value [9] was 57.1%. For the same compound, the “P. aeuroginosa Diameter of inhibition zone (mm)” value [10] was 17 mm, the “antimicrobial activity with P. aeuroginosa, in words” value [10] was “very strong” and the “P. aeuroginosa % Activity index” value [10] was 89.5%. For the same compound, the “C. albicans Diameter of inhibition zone (mm)” value [11] was 23 mm, the “antimicrobial activity with C. albicans, in words” value [11] was “very strong” and the “C. albicans % Activity index” value [11] was 82.1%. For the same compound, the “A. flavus Diameter of inhibition zone (mm)” value [12] was 18 mm, the “antimicrobial activity with A. flavus, in words” value [12] was “very strong” and the “A. flavus % Activity index” value [12] was 69.2%. It also gave a melting point of 100 to 102 °C.

Source: article PMC10112504, “Novel 4-thiophenyl-pyrazole, pyridine, and pyrimidine derivatives as potential antitumor candidates targeting both EGFR and VEGFR-2; design, synthesis, biological evaluations, and in silico studies” (RSC Advances, 2023)
